How the values were obtained:
[1] = biological target: Eukaryotic translation initiation factor 4E (Oryctolagus cuniculus) (UniProt P29338); assay: Inhibition of eIF4E-mediated translation in flexi rabbit reticulocyte lysate using luciferase mRNA by luminescence based luciferase assay relative to m7GpppG
[2] = biological target: Eukaryotic translation initiation factor 4E (Homo sapiens) (UniProt P06730)
Description: Binding affinity to eIF4E (unknown origin) by fluorescence quenching assay

m7GpppX diphosphatase = biological target: T1, m7GpppX diphosphatase (Homo sapiens, UniProt Q96C86); assay: Stability of the compound assessed as human DcpS-mediated compound hydrolysis at 40 uM after 10 to 180 mins by HPLC analysis; format: ADME
T1 sequence (Q96C86 whole entry): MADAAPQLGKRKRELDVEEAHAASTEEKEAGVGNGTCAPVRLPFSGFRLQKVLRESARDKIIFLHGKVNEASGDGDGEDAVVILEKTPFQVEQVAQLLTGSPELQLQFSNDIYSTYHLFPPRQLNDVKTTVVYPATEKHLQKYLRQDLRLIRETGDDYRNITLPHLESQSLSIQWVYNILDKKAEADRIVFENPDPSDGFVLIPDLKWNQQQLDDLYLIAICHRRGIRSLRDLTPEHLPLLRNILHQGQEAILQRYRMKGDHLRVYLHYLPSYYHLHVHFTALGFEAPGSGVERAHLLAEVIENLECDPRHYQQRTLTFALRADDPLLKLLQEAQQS

Serum [3] = assay: Stability of the compound in 5% fetal bovine serum at 50 uM up to 240 mins by RP-HPLC analysis; format: ADME, cell-free, Bos taurus; conditions: cattle, 4 h
Serum [4] = assay: Stability of the compound in 10% fetal bovine serum at 50 uM up to 240 mins by RP-HPLC analysis; format: ADME, cell-free, Bos taurus; conditions: cattle, 4 h
[5] = Chemical stability of the compound in aqueous buffer at pH 4 to 8.5; format: physicochemical
[6] = Chemical stability of the compound in glycine buffer at pH 2.2; format: physicochemical
[7] = biological target: T2, Eukaryotic translation initiation factor 4E (Oryctolagus cuniculus, UniProt P29338); assay: Inhibition of eIF4E-mediated translation in flexi rabbit reticulocyte lysate using luciferase mRNA treated simultaneously with mRNA by luminescence based luciferase assay
[8] = biological target: T2, Eukaryotic translation initiation factor 4E; assay: Inhibition of eIF4E-mediated translation in flexi rabbit reticulocyte lysate using luciferase mRNA preincubated for 60 mins before mRNA addition by luminescence based luciferase assay
[9] = biological target: T3, DcpS (m7GpppX diphosphatase) (Homo sapiens, UniProt Q96C86); assay: Stability of the compound assessed as human DcpS-mediated compound hydrolysis at 40 uM after 180 mins by HPLC analysis; format: ADME; conditions: human DcpS enzyme (m7GpppX diphosphatase), read-out: Drug degradation
T3 sequence (Q96C86 whole entry): T1 sequence (Q96C86 whole entry)

[10] = Chemical stability of the compound in phosphate buffer at pH 7 assessed as compound decomposition; format: physicochemical; conditions: read-out: Drug degradation
[11] = Chemical stability of the compound in […] buffer at pH 8.5; format: physicochemical
[12] = Chemical stability of the compound in glycine buffer at pH 2.2 after 16 hrs; format: physicochemical; conditions: pH 2.2, 16 h

Sequence of Eukaryotic translation initiation factor 4E (Homo sapiens) (P06730 whole entry): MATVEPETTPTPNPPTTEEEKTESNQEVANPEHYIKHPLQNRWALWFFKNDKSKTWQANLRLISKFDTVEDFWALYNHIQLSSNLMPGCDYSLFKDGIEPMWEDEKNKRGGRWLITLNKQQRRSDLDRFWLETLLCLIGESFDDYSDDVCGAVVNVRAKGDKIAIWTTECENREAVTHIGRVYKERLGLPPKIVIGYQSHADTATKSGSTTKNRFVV
T2 sequence (P29338 whole entry): as the sequence (P06730 whole entry) above, with T16P, T17A, E174D counted along it
Sequence of Eukaryotic translation initiation factor 4E (Oryctolagus cuniculus) (P29338 whole entry): as the sequence (P06730 whole entry) above, with T16P, T17A, E174D counted along it

Row | Ratio [1] | Ka [2] | Stability (m7GpppX diphosphatase) | SMILES | IC50 [8] | further results
1 | 0.85 |  |  | B[P@](=O)(OC[C@H]1O[C@@H](n2c[n+](C)c3c(O)nc(N)nc32)[C@H](O)[C@@H]1O)OP(=O)([O-])CP(=O)([O-])O[P@@](B)(=O)OC[C@H]1O[C@@H](n2c[n+](C)c3c(O)nc(N)nc32)[C@H](O)[C@@H]1O |  | 
2 |  | 371 µM⁻¹ | Unstable | C[n+]1cn([C@@H]2O[C@H](CO[P@](=O)(S)OP(=O)([O-])OP(=O)(O)O)[C@@H](O)[C@H]2O)c2nc(N)nc(O)c21.N.N.N.N |  | Stability (Serum [3]): Stable; Stability (Serum [4]): Stable
3 |  |  |  | [BH3-]P(=O)(OC[C@H]1O[C@@H](n2c[n+](C)c3c(O)nc(N)nc32)[C@H](O)[C@@H]1O)OP(=O)(O)OP(=O)(O)O (stereo not given in full) |  | Stability [5]: Stable; Stability [6]: Unstable
4 | 3.14 |  |  | C[n+]1cn([C@@H]2O[C@H](COP(=O)(O)OP(=O)(O)OP(=O)(O)OP(=O)(O)OC[C@H]3O[C@@H](n4c[n+](C)c5c([O-])nc(N)nc54)[C@H](O)[C@@H]3O)[C@@H](O)[C@H]2O)c2nc(N)nc([O-])c21 |  | 
5 | 1.18 |  |  | B[P@](=O)(OC[C@H]1O[C@@H](n2c[n+](C)c3c(O)nc(N)nc32)[C@H](O)[C@@H]1O)OP(=O)([O-])CP(=O)([O-])O[P@](B)(=O)OC[C@H]1O[C@@H](n2c[n+](C)c3c(O)nc(N)nc32)[C@H](O)[C@@H]1O |  | 
6 |  | 19.5 µM⁻¹ |  | C[n+]1cn([C@@H]2O[C@H](COP(=O)(O)OP(=O)(O)CP(=O)(O)O)[C@@H](O)[C@H]2O)c2nc(N)nc([O-])c21 |  | 
7 |  | 9.4 µM⁻¹ |  | C[n+]1cn([C@@H]2O[C@H](COP(=O)(O)OP(=O)([O-])OP(=O)(O)OC[C@H]3O[C@@H](n4cnc5c(=O)[nH]c(N)nc54)[C@H](O)[C@@H]3O)[C@@H](O)[C@H]2O)c2nc(N)nc(O)c21 |  | 
8 | 0.99 |  |  | B[P@@](=O)(OC[C@H]1O[C@@H](n2c[n+](C)c3c(O)nc(N)nc32)[C@H](O)[C@@H]1O)OP(=O)([O-])CP(=O)([O-])O[P@](B)(=O)OC[C@H]1O[C@@H](n2c[n+](C)c3c(O)nc(N)nc32)[C@H](O)[C@@H]1O |  | 
9 |  |  | Stable | C[n+]1cn([C@@H]2O[C@H](COP(=O)([O-])OP(=O)(O)OP(=O)(O)O)[C@@H](O)[C@H]2O)c2nc(N)[nH]c(=O)c21 |  | Stability (Serum [3]): Unstable; Stability (Serum [4]): Unstable
10 |  | 148 µM⁻¹ | Unstable | B[P@@](=O)(OC[C@H]1O[C@@H](n2c[n+](C)c3c(O)nc(N)nc32)[C@H](O)[C@@H]1O)OP(=O)([O-])OP(=O)(O)O.N.N.N.N | 1280 nM | IC50 [7]: 1190 nM; metabolised at 3 h, 40 µM [9]: 19%
11 | 2.66 |  |  | C[n+]1cn([C@@H]2O[C@H](COP(=O)(O)OP(=O)(O)OP(=O)(O)OC[C@H]3O[C@@H](n4c[n+](C)c5c([O-])nc(N)nc54)[C@H](O)[C@@H]3O)[C@@H](O)[C@H]2O)c2nc(N)nc([O-])c21 |  | 
12 | 1.56 |  |  | C[n+]1cn([C@@H]2O[C@H](CO[P@](=O)(S)OP(=O)([O-])CP(=O)([O-])O[P@](=O)(S)OC[C@H]3O[C@@H](n4c[n+](C)c5c(O)nc(N)nc54)[C@H](O)[C@@H]3O)[C@@H](O)[C@H]2O)c2nc(N)nc(O)c21 |  | 
13 | 1.12 |  |  | C[n+]1cn([C@@H]2O[C@H](CO[P@@](=O)(S)OP(=O)([O-])CP(=O)([O-])O[P@](=O)(S)OC[C@H]3O[C@@H](n4c[n+](C)c5c(O)nc(N)nc54)[C@H](O)[C@@H]3O)[C@@H](O)[C@H]2O)c2nc(N)nc(O)c21 |  | 
14 | 1.5 |  |  | CO[C@H]1[C@@H](O)[C@H](n2c[n+](C)c3c(O)nc(N)nc32)O[C@@H]1COP(=O)(O)OP(=O)([O-])OP(=O)(O)OC[C@H]1O[C@@H](n2cnc3c(=O)[nH]c(N)nc32)[C@H](O)[C@@H]1O |  | 
15 |  | 136 µM⁻¹ | Unstable | B[P@](=O)(OC[C@H]1O[C@@H](n2c[n+](C)c3c(O)nc(N)nc32)[C@H](O)[C@@H]1O)OP(=O)([O-])OP(=O)(O)O.N.N.N.N | 3260 nM | IC50 [7]: 4120 nM
16 |  |  |  | B[P@@](=O)(OC[C@H]1O[C@@H](n2c[n+](C)c3c(O)nc(N)nc32)[C@H](O)[C@@H]1O)OP(=O)([O-])OP(=O)([O-])O[P@](B)(=O)OC[C@H]1O[C@@H](n2c[n+](C)c3c(O)nc(N)nc32)[C@H](O)[C@@H]1O |  | metabolised at 3 h, 40 µM [9]: 81%
17 | 1.86 |  |  | C[n+]1cn([C@@H]2O[C@H](CO[P@](=O)(S)OP(=O)([O-])CP(=O)([O-])O[P@@](=O)(S)OC[C@H]3O[C@@H](n4c[n+](C)c5c(O)nc(N)nc54)[C@H](O)[C@@H]3O)[C@@H](O)[C@H]2O)c2nc(N)nc(O)c21 |  | 
18 |  |  |  | [BH3-]P(=O)(OC[C@H]1O[C@@H](n2c[n+](C)c3c(O)nc(N)nc32)[C@H](O)[C@@H]1O)OP(=O)(O)NP(=O)(O)O (stereo not given in full) |  | degraded [10]: > 50%; Stability [11]: Unstable; Stability [12]: Unstable
19 |  |  |  | C[n+]1cn([C@@H]2O[C@H](COP(=O)(O)OP(=O)(O)NP(=O)(O)O)[C@@H](O)[C@H]2O)c2nc(N)nc([O-])c21 |  | Stability [11]: Unstable; Stability [12]: Unstable
20 |  |  |  | [BH3-]P(=O)(OC[C@H]1O[C@@H](n2c[n+](C)c3c(O)nc(N)nc32)[C@H](O)[C@@H]1O)OP(=O)(O)CP(=O)(O)O (stereo not given in full) |  | Stability [5]: Stable; Stability [6]: Unstable
21 |  | 190 µM⁻¹ | Unstable | C[n+]1cn([C@@H]2O[C@H](CO[P@@](=O)(S)OP(=O)([O-])OP(=O)(O)O)[C@@H](O)[C@H]2O)c2nc(N)nc(O)c21.N.N.N.N | 1300 nM | IC50 [7]: 1440 nM; Stability (Serum [3]): Stable; Stability (Serum [4]): Stable
22 |  |  | Stable | C[n+]1cn([C@@H]2O[C@H](COP(=O)(O)OP(=O)([O-])OP(=O)(O)OC[C@H]3O[C@@H](n4cnc5c(=O)[nH]c(N)nc54)[C@H](O)[C@@H]3O)[C@@H](O)[C@H]2O)c2nc(N)[nH]c(=O)c21 | 25000 nM | 

Row | SMILES | Ratio [1] | Ka [2] | Stability (m7GpppX diphosphatase) | IC50 [8] | further results
23 | C[n+]1cn([C@@H]2O[C@H](CO[P@](=O)(S)OP(=O)([O-])CP(=O)(O)O)[C@@H](O)[C@H]2O)c2nc(N)nc(O)c21.N.N.N.N |  | 85.9 µM⁻¹ | Unstable | 1240 nM | IC50 [7]: 1490 nM; Stability (Serum [3]): Stable; Stability (Serum [4]): Stable
24 | B[P@@](=O)(OC[C@H]1O[C@@H](n2c[n+](C)c3c(O)nc(N)nc32)[C@H](O)[C@@H]1O)OP(=O)([O-])CP(=O)(O)O.N.N.N.N |  | 36.1 µM⁻¹ | Unstable | 3260 nM | IC50 [7]: 2550 nM
25 | B[P@](=O)(OC[C@H]1O[C@@H](n2c[n+](C)c3c(O)nc(N)nc32)[C@H](O)[C@@H]1O)OP(=O)([O-])CP(=O)(O)O.N.N.N.N |  | 18.5 µM⁻¹ | Unstable | 3220 nM | IC50 [7]: 4470 nM
26 | C[n+]1cn([C@@H]2O[C@H](CO[P@@](=O)(S)OP(=O)([O-])CP(=O)(O)O)[C@@H](O)[C@H]2O)c2nc(N)nc(O)c21.N.N.N.N |  | 41.8 µM⁻¹ | Unstable | 2610 nM | IC50 [7]: 3680 nM; Stability (Serum [3]): Unstable; Stability (Serum [4]): Unstable
